Where two headings read alike, the source gives them in different places.
Tests used:
IRAK4 = IRAK4 (Homo sapiens (Human), UniProt Q9NWZ3); assay: IRAK4 Inhibition Assay; assay type: biochemical; conditions: ATP 500 μM; IRAK4 0.6 nM; 60 min at room temperature
Protocol: The assays were performed in U-bottom 384-well plates. […] The reaction was initiated by the combination of IRAK4 with substrates and test compounds. The reaction was incubated at room temperature for 60 min. and terminated by adding 45 μL of 35 mM EDTA to each sample. The reaction mixture was analyzed on the Caliper LABCHIP® 3000 (Caliper, Hopkinton, Mass.) by electrophoretic separation of the fluorescent substrate and phosphorylated product.

[1] = tested on: TLR2 induced IL-6 in peripheral blood mononuclear cells (PBMCs); assay: PBMC TLR2 Induced IL-6 Assay; assay type: cell-based, human; conditions: human PBMCs, 10 μg/ml lipoteichoic acid for 5 hours, IL-6 by ELISA; for IC50: value without asterisk, read-out: Cell IC50; for EC50: EC50 determinations are indicated with an asterisk, read-out: Cell EC50 (asterisk)
Procedure, shortened: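 IL-6 ELISA of supernatants after a 5 h challenge with the TLR2 agonist lipoteichoic acid (10 μg/ml). Before stimulation, human PBMCs (250000 cells/well; RPMI, 10% heat-inactivated FCS) received compound for 30 min at 37° C. Values given as IC50 or EC50.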

Sequence of IRAK4 (Q9NWZ3 whole entry, species assumed): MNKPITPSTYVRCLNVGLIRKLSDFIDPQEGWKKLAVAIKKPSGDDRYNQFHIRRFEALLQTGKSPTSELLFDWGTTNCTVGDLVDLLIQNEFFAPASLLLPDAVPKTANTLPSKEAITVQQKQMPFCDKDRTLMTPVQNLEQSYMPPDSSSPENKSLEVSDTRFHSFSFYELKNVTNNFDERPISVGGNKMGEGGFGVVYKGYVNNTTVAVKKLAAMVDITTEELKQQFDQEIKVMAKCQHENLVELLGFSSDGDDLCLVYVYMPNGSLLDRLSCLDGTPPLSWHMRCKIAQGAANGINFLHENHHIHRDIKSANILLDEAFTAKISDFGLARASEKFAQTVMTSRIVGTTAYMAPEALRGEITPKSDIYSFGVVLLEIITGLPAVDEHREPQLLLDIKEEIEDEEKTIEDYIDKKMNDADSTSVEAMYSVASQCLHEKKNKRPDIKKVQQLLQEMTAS

| SMILES | IC50 (IRAK4) [nM] | IC50 [1] [nM] | IC50 ([1]; Homo sapiens, PBMC, 5 h) [nM] | EC50 ([1]; Homo sapiens, PBMC, 5 h) [nM] | EC50 [1] [nM] |
| --- | --- | --- | --- | --- | --- |
| CCC(C)Nc1cc(Nc2ccn3nccc3n2)ncc1C(=O)NC[C@@H](F)C(C)(C)O (stereo partly drawn) [Example 388] | 6.6 | 234 | – | – | – |
| CC(C)(O)[C@H](F)CNC(=O)c1cnc(Nc2nc3ccnn3cc2F)cc1NC1CCC(F)(F)C1 (stereo partly drawn) [Example 392] | 8 | 297 | – | – | – |
| CC(C)(O)[C@H](F)CNC(=O)c1cnc(Nc2ccc3ncncc3c2)cc1NC1CCC1 [Example 73] | 2.7 | – | 327 | – | – |
| O=C(NC1CCC(O)CC1)c1cnc(Nc2ccc3ncsc3c2)cc1NC1CCCC1F (stereo not drawn) [Example 352] | 3.8 | 245 | – | – | – |
| CC(C)(O)[C@H](F)CNC(=O)c1cnc(Nc2ccc3ncsc3c2)cc1NC1C2CCCC1CCC2 (stereo partly drawn) [Example 419] | 5.1 | – | 184 | – | – |
| CC(C)Nc1cc(Nc2ccc3ncsc3c2)ncc1C(=O)NC12CCC(O)(CC1)C2 [Example 176] | 10.3 | – | 489 | – | – |
| CC(C)(O)C(F)(F)CNC(=O)c1cnc(Nc2nc3scnc3cc2F)cc1NC1CC1 [Example 493] | 4.3 | – | – | 365 | – |
| CC(C)(O)[C@H](F)CNC(=O)c1cnc(Nc2ncc3ncccc3n2)cc1N[C@H]1CCC[C@@H]1F [Example 445] | 3.8 | – | 106 | – | – |
| CC(C)Nc1cc(Nc2ccc3ncsc3c2)ncc1C(=O)NCC[C@@H](C)NC(=O)c1ccccc1 [Example 185] | 4.4 | – | 620 | – | – |
| CC(C)(O)[C@H](F)CNC(=O)c1cnc(Nc2ccc3ncsc3n2)cc1NC1CCOCC1 [Example 312] | 1 | – | 29 | – | – |
| CC(C)Nc1cc(Nc2cc3ccnn3cc2F)ncc1C(=O)NC[C@@H](F)C(C)(C)O [Example 477] | 10 | – | 717 | – | – |
| CC(C)Nc1cc(Nc2ccc3cc(C#N)ccc3n2)ncc1C(=O)NC[C@@H](F)C(C)(C)O [Example 480] | 8.4 | – | – | 877 | – |
| CC(C)(O)c1cnc(Nc2cc(Nc3nc4ccnn4cc3F)ncc2C(=O)NC[C@@H](F)C(C)(C)O)s1 [Example 453] | 2.6 | – | 836 | – | – |
| Cc1nc2ccc(Nc3cc(NC4CCCC4F)c(C(=O)NC[C@@H](F)C(C)(C)O)cn3)cc2s1 (stereo partly drawn) [Example 350] | 2.7 | 148 | – | – | – |
| CC(C)(O)[C@H](F)CNC(=O)c1cnc(Nc2ccc3ncsc3c2)cc1Nc1ccc(C(N)=O)cc1 [Example 320] | 2.4 | – | 270 | – | – |
| CC(C)Nc1cc(Nc2ccc3ncsc3c2)ncc1C(=O)NC1CCc2nnnn2CC1 (stereo not drawn) [Example 527, 6-(benzo[d]thiazol-6-ylamino)-4-(isopropylamino)-N-(6,7,8,9-tetrahydro-5H-tetrazolo[1,5-a]azepin-7-yl)nicotinamide] | 7.7 | – | – | 320 | – |
| CC(C)(O)[C@H](F)CNC(=O)c1cnc(Nc2ccn3nccc3n2)cc1NCC(F)F [Example 386] | 20.1 | – | 516 | – | – |
| CC(C)Nc1cc(Nc2ccc3ncsc3c2)ncc1C(=O)NCC[C@@H](C)NC(=O)CN(C)C [Example 192] | 6.1 | – | 264 | – | – |
| CC(C)(O)[C@H](F)CNC(=O)c1cnc(Nc2ccc3ncsc3c2)cc1N[C@H]1CCC(CCO)C1 (stereo partly drawn) [Example 68] | 4.7 | 231 | – | – | – |

| SMILES | IC50 (IRAK4) [nM] | IC50 [1] [nM] | IC50 ([1]; Homo sapiens, PBMC, 5 h) [nM] | EC50 ([1]; Homo sapiens, PBMC, 5 h) [nM] | EC50 [1] [nM] |
| --- | --- | --- | --- | --- | --- |
| CC(C)(O)[C@H](F)CNC(=O)c1cnc(Nc2ccc3ncccc3n2)cc1NC1CCOCC1F (stereo partly drawn) [Example 438] | 11.6 | 168 | – | – | – |
| CC(C)(O)[C@H](F)CNC(=O)c1cnc(Nc2ccn3nccc3c2)cc1NCCC1CC1 [Example 292] | 7 | – | 427 | – | – |
| CC(C)Nc1cc(Nc2ccn3nccc3c2)ncc1C(=O)NC[C@@H](F)C(C)(C)O [Example 286] | 5.2 | – | 415 | – | – |
| CC(C)Nc1cc(Nc2ccc3ncsc3c2)ncc1C(=O)NC1CCC(O)(c2ccnn2C)CC1 (stereo not drawn) [Example 524] | 3.7 | – | – | 75 | – |
| CC(C)(O)[C@H](F)CNC(=O)c1cnc(Nc2ccc3ncsc3c2)cc1NC12CCC(NC(=O)c3ccccc3)(CC1)C2 [Example 394] | 10.2 | – | 311 | – | – |
| C[C@@H](CO)Nc1cc(Nc2nc3scnc3cc2F)ncc1C(=O)N[C@H]1CC[C@H](O)CC1 [Example 484] | 8.7 | – | 1350 | – | – |
| CC(=O)N[C@H]1CC[C@@H](NC(=O)c2cnc(Nc3ccc4ncsc4c3)cc2NC(C)C)CC1 [Example 216] | 3.5 | – | 604 | – | – |
| CC(C)(O)[C@H](F)CNC(=O)c1cnc(Nc2nc3scnc3cc2F)cc1NC1CCCOC1 (stereo partly drawn) [Example 474] | 2.8 | 204 | – | – | – |
| CC(C)(O)[C@H](F)CNC(=O)c1cnc(Nc2nc3ccnn3cc2F)cc1NC1CCCCC1(F)F (stereo partly drawn) [Example 497] | 15.2 | – | – | – | 299 |
| CC(C)(O)[C@H](F)CNC(=O)c1cnc(Nc2ccc3ncsc3c2)cc1NC12CCC(NS(C)(=O)=O)(CC1)C2 [Example 396] | 2.7 | – | 351 | – | – |
| CC(C)Nc1cc(Nc2ccc3ncsc3c2)ncc1C(=O)NCCN1CCOCC1 [Example 402] | 9 | – | 357 | – | – |
| CC(C)(O)[C@H](F)CNC(=O)c1cnc(Nc2nc3ccnn3cc2F)cc1NC1CC2CC2C1(F)F (stereo partly drawn) [Example 481] | 3.6 | – | 223 | – | – |
| CC(C)(O)[C@H](F)CNC(=O)c1cnc(Nc2nc3scnc3cc2F)cc1NC1CC1 [Example 467] | 2 | – | 428 | – | – |
| CCC(C)Nc1cc(Nc2ccn3nccc3n2)ncc1C(=O)NC[C@@H](F)C(C)(C)O (stereo partly drawn) [Example 387] | 4.3 | – | 293 | – | – |
| CCC(C)Nc1cc(Nc2ccc3ncsc3c2)ncc1C(=O)NC[C@@H](F)C(C)(C)O (stereo partly drawn) [Example 138] | 1.9 | 302 | – | – | – |
| CC(C)(O)[C@H](F)CNC(=O)c1cnc(Nc2ncc3ncccc3n2)cc1NC1CCOCC1 [Example 371] | 6 | – | 604 | – | – |
| CC(C)Nc1cc(Nc2nc3scnc3cc2F)ncc1C(=O)NCC(F)(F)C(C)(C)O [Example 483] | 3.4 | – | 463 | – | – |
| O=C(NC[C@@H](F)CO)c1cnc(Nc2ccc3ncsc3c2)cc1NC1CCCC1O (stereo partly drawn) [Example 337] | 5.8 | – | 799 | – | – |
| CC(C)Nc1cc(Nc2ccc3ncsc3c2)ncc1C(=O)N[C@H]1CC[C@H](C(=O)NC23CC4CC(CC(O)(C4)C2)C3)CC1 [Example 214] | 6.7 | – | 371 | – | – |

| SMILES | IC50 (IRAK4) [nM] | IC50 [1] [nM] | IC50 ([1]; Homo sapiens, PBMC, 5 h) [nM] | EC50 ([1]; Homo sapiens, PBMC, 5 h) [nM] | EC50 [1] [nM] |
| --- | --- | --- | --- | --- | --- |
| CCNc1cc(Nc2cc3scnc3cc2F)ncc1C(=O)NC[C@@H](F)C(C)(C)O [Example 516] | 3.1 | – | 1200 | – | – |
| CNC(=O)c1ccc(CCNC(=O)c2cnc(Nc3ccc4ncsc4c3)cc2NC(C)C)cc1 [Example 12] | 5.6 | – | 311 | – | – |
| Cc1cn2nccc2nc1Nc1cc(NC2CCOCC2)c(C(=O)NC[C@@H](F)C(C)(C)O)cn1 [Example 482] | 10.3 | – | – | 251 | – |
| CC(=O)NCCNC(=O)c1cnc(Nc2ccc3ncsc3c2)cc1NC1CCCC1 [Example 152] | 7.5 | – | 596 | – | – |
| CC(C)(O)[C@H](F)CNC(=O)c1cnc(Nc2cc3nccnc3cc2F)cc1NC1CCC1 [Example 500] | 5.4 | – | – | 228 | – |
| CC(C)Nc1cc(Nc2ccc3ncsc3c2)ncc1C(=O)NC1CCC(C(C)(C)O)CC1 (stereo not drawn) [Example 456] | 1.6 | – | 336 | – | – |
| CC(C)(O)[C@H](F)CNC(=O)c1cnc(Nc2ccc3nccn3n2)cc1NC1CCC(F)C1 (stereo partly drawn) [Example 281] | 1.2 | 354 | – | – | – |
| CC(C)(O)[C@H](F)CNC(=O)c1cnc(Nc2ccc3ncsc3c2)cc1NCCC1CC1 [Example 129] | 2.6 | – | 143 | – | – |
| CNC(=O)[C@H]1CC[C@H](NC(=O)c2cnc(Nc3ccc4ncsc4c3)cc2NC(C)C)C1 [Example 221] | 10.5 | – | 462 | – | – |
| COc1ccc(CNc2cc(Nc3ccc4ncsc4c3)ncc2C(=O)NC[C@@H](F)C(C)(C)O)cc1 [Example 168] | 13.4 | – | 565 | – | – |
| CC(C)(O)[C@H](F)CNC(=O)c1cnc(Nc2ccn3nccc3n2)cc1NC1CCC(F)C1 (stereo partly drawn) [Example 247] | 2.7 | 170 | – | – | – |
| CC(C)(O)[C@H](F)CNC(=O)c1cnc(Nc2ccc3nc(N)ccc3c2)cc1NC1CC1 [Example 75] | 18.9 | – | 710 | – | – |
| CC(C)(O)[C@H](F)CNC(=O)c1cnc(Nc2ncc3ncccc3n2)cc1N[C@@H]1CCC[C@@H]1F [Example 446] | 10.6 | – | 94 | – | – |
| CC(C)(O)[C@H](F)CNC(=O)c1cnc(Nc2cc3scnc3cc2F)cc1NC1CCCOC1 (stereo partly drawn) [Example 517] | 6 | – | 1290 | – | – |
| CC(C)(O)[C@H](F)CNC(=O)c1cnc(Nc2ccn3nccc3c2)cc1NCC1CC1 [Example 290] | 11.4 | – | 607 | – | – |
| CC(C)Nc1cc(Nc2ccc3ncsc3n2)ncc1C(=O)NCC(F)(F)C(C)(C)O [Example 313] | 3.4 | – | 73 | – | – |
| CC(C)(O)[C@H](F)CNC(=O)c1cnc(Nc2ccc3ncccc3c2)cc1NC1CCCC1(F)F (stereo partly drawn) [Example 360] | 2.8 | – | 73 | – | – |
| CC(C)(O)[C@H](F)CNC(=O)c1cnc(Nc2nc3scnc3cc2F)cc1NC1CCCC1F (stereo partly drawn) [Example 462] | 1.7 | 115 | – | – | – |
| CCNc1cc(Nc2nc3scnc3cc2F)ncc1C(=O)NC[C@@H](F)C(C)(C)O [Example 468] | 4.1 | – | 246 | – | – |
